Test results from the AptaBench aptamer set (doi:10.1093/nar/gkaf219).

Assays:
Conditions in all cases: 10 mM Tris-HCl, pH 7.4
[1] = system: DNA aptamer or structured DNA CTTACGACGGTCTTTTGGGTGTTCTGGGTGGGAGGAGCGTCGTAAG
[2] = system: DNA aptamer or structured DNA TTCAAATCTGAGCAGCCTAGTTACTGACGGGTTTATAGTACTCGCATCGAGTCTAGATTTGAA
[3] = system: DNA aptamer or structured DNA GGGACGACGGCACGAGGTTATTCGTTGGTTGCACTGCGCTGGGAGGTAGTCGTCCC
[4] = system: DNA aptamer or structured DNA TTCAAATCTGAGCAGCCTAGTTACTGACGGGTTTATAGTACTCGCATTGAGTCTAGATTTGAA
[5] = system: DNA aptamer or structured DNA TTCAAATCTGAGCAGCCTAGTTACTGACGGGTTTATAGTACTCGTATTGAGTCTAGATTTGAA
[6] = system: DNA aptamer or structured DNA CTTACGACTTTGGTTTCCTCGATTCGCATGGGTGGTAAGTCGTAAG
[7] = system: DNA aptamer or structured DNA CTTACGACTCAGGGGGAGGCTAGGGTGCGCGGAAGCTGGTCGTAAG
[8] = system: DNA aptamer or structured DNA CTTACGACTGGGATGTGTTGTTAGTGCTGTCGGATCCGGTCGTAAG
[9] = system: DNA aptamer or structured DNA CTTACGACTAGTTCGGATAAGGGGTAGGTGTGGTTGTGGTCGTAAG
[10] = system: DNA aptamer or structured DNA CTTACGACATGGGATGTGTAGTTAGTGGTCGGATCCGAGTCGTAAG
[11] = system: DNA aptamer or structured DNA CTTACGACGGTGGTGTGGTACTGGGCTTGGGGGGTGTTGTCGTAAG
[12] = system: DNA aptamer or structured DNA TTCAAATCTGGCGCAGGTAGGGGTGTAGGTGTGGGGGTAAGTCTAGATTTGAA
[13] = system: DNA aptamer or structured DNA GGGACGACCTAGGGCTTGGGTTTAGGTGTGGGGTGTTGGGTCGTCCC
[14] = system: DNA aptamer or structured DNA CTTACGACGGGTGCTGTTGGTTCTAGGGGTAGGATGGCGTCGTAAG
[15] = system: DNA aptamer or structured DNA TTCAAATCTTGGTACGTTCTGCCTTTTCTTATTTTGCTTTGGGTTACCTAGTCTAGATTTGAA
[16] = system: DNA aptamer or structured DNA TTCAAATCTCGCGCAGGTAGGGGTGTAGGTGTGGGGGTAAGTCTAGATTTGAA
[17] = system: DNA aptamer or structured DNA GGGACGACTAGGGCTTAGGGTTTAGGTGTGGGGTGTAAGTCGTCCC
[18] = system: DNA aptamer or structured DNA CTTACGACGTAGCTTCGGGTGTTCTGGGTGAGCTCTGCGTCGTAAG
[19] = system: DNA aptamer or structured DNA GGGACGACGGGACGGTAAGTGGCAGGTCGTTGGAATTTCTACTGTATCGTCGTCCC
[20] = system: DNA aptamer or structured DNA CTTACGACAAGGGATGTGTAGTTAGTGGTCGGATCCGAGTCGTAAG
[21] = system: DNA aptamer or structured DNA CTTACGACTACGGTTGGTTCAGGGGGTAGGTGCTTTGGGTCGTAAG
[22] = system: DNA aptamer or structured DNA CTTACGACTAGGCGGGGGTCGGCCACCGAGGTGGGGTAGTCGTAAG
[23] = system: DNA aptamer or structured DNA CTTACGACACAGGGGGGGGCTAGGGTGCGCGGGAGCTGGTCGTAAG
[24] = system: DNA aptamer or structured DNA CTTACGACTTTTGGGTGTCTGGGTGGGAGGTCGTAAG
[25] = system: DNA aptamer or structured DNA CTTACGACTAGGTGTGGGTCGGCTCCGGATGGAGGGTAGTCGTAAG
[26] = system: DNA aptamer or structured DNA CTTACGACGGGTGCCGTTGGTTCTAGGGGTAGGATGGCGTCGTAAG
[27] = system: DNA aptamer or structured DNA CTTACGACGCGGACGTTGTGGGGCGTGGCAGTCGGTGGGTCGTAAG
[28] = system: DNA aptamer or structured DNA GGGACGACAGAGGTTAGGTGTAGGTTTTTGGGTCCTGTCGTCCC
[29] = system: DNA aptamer or structured DNA CTTACGACCGGGATCCTTTGGGACAACCTGGTGGGCATGTCGTAAG
[30] = system: DNA aptamer or structured DNA CTTACGACCACCATGGGAATCGGGTGGCTTGGAGGTGCGTCGTAAG
[31] = system: DNA aptamer or structured DNA CTTACGACGAGCATCGGTTTTTTCGGTGATGTCTGGGAGTCGTAAG
[32] = system: DNA aptamer or structured DNA GGGACGACGGTTGGCTTGGGGTCGGGTGTGGGTGCGGCGTCGTCCC
[33] = system: DNA aptamer or structured DNA GGGACGACTAGCTGGTGCGTTGTCCGAAGTCATGAGTAGTCGTCCC
[34] = system: DNA aptamer or structured DNA GGGACGACGGCTTGCATTGAGCAGAAGGGGTACACGCTGTCGTCCC
[35] = system: DNA aptamer or structured DNA CTTACGACAGGGGTACCCGCGTATAACGTGGCGTTCGTGTCGTAAG
Throughout, for binding call: call rule not given here.

NCCc1c[nH]c2ccc(O)cc12
binding call [1]: no binding | binding call [2]: no binding | binding call [3]: no binding | binding call [4]: no binding | binding call [5]: no binding | binding call [6]: no binding | binding call [7]: no binding | binding call [8]: no binding | binding call [9]: binds | binding call [10]: no binding | binding call [11]: no binding | binding call [12]: no binding | binding call [13]: no binding | binding call [14]: binds | binding call [15]: no binding | binding call [16]: no binding | binding call [17]: no binding | binding call [18]: no binding | binding call [19]: binds | binding call [20]: no binding | binding call [21]: binds | binding call [22]: no binding | binding call [23]: no binding | binding call [24]: no binding | binding call [25]: no binding | binding call [26]: binds | binding call [27]: no binding | binding call [28]: no binding

COC(=O)[C@@H]1C2CCC(C[C@@H]1OC(=O)c1ccccc1)N2C (stereo partly drawn)
binding call [3]: no binding | binding call [4]: no binding | binding call [5]: no binding | binding call [29]: no binding | binding call [30]: no binding | Kd [6]: 239 nM | Kd [7]: 245 nM | Kd [8]: 204 nM | binding call [31]: no binding | binding call [32]: binds | Kd [9]: 192 nM | binding call [33]: no binding | Kd [11]: 335 nM | binding call [34]: no binding | binding call [12]: no binding | binding call [13]: binds | Kd [14]: 107 nM | binding call [15]: no binding | binding call [16]: no binding | binding call [17]: no binding | Kd [18]: 833 nM | binding call [19]: no binding | Kd [20]: 2650 nM | Kd [21]: 198 nM | Kd [22]: 315 nM | Kd [23]: 282 nM | binding call [35]: no binding | Kd [24]: 67 nM | Kd [25]: 510 nM | Kd [26]: 1350 nM | Kd [27]: 372 nM | binding call [28]: no binding

CCN(CC)CCOC(=O)c1ccc(N)cc1
binding call [1]: no binding | binding call [3]: no binding | binding call [4]: no binding | binding call [5]: no binding | binding call [29]: no binding | binding call [30]: binds | binding call [6]: no binding | binding call [7]: binds | binding call [8]: binds | binding call [31]: binds | binding call [32]: binds | binding call [9]: binds | binding call [33]: no binding | binding call [10]: no binding | binding call [11]: binds | binding call [34]: no binding | binding call [12]: no binding | binding call [13]: no binding | binding call [14]: binds | binding call [15]: no binding | binding call [16]: no binding | binding call [17]: no binding | binding call [18]: no binding | binding call [19]: no binding | binding call [20]: no binding | binding call [21]: binds | binding call [23]: binds | binding call [35]: no binding | binding call [24]: no binding | binding call [25]: no binding | binding call [26]: no binding | binding call [27]: no binding | binding call [28]: no binding

C=C[C@H]1CN2CC[C@@H]1C[C@H]2[C@H](O)c1ccnc2ccc(OC)cc12
binding call [2]: binds | binding call [3]: binds | binding call [4]: binds | binding call [5]: binds | binding call [29]: no binding | binding call [30]: binds | binding call [6]: no binding | binding call [7]: binds | binding call [8]: binds | binding call [31]: no binding | binding call [32]: binds | binding call [9]: no binding | binding call [33]: binds | binding call [10]: no binding | binding call [11]: binds | binding call [34]: binds | binding call [12]: no binding | binding call [15]: no binding | binding call [16]: no binding | binding call [17]: no binding | binding call [18]: no binding | binding call [19]: binds | binding call [20]: no binding | binding call [21]: no binding | binding call [22]: no binding | binding call [23]: no binding | binding call [35]: no binding | binding call [25]: no binding | binding call [26]: no binding | binding call [27]: no binding
